# Measurements taken from US20240327364A1, “THERAPEUTIC TARGETING OF GPR68 TO INDUCE FERROPTOSIS” (University Of Maryland, Baltimore, priority 2023, published 2024).
# Legend:
# [1] = test system: 6 independent patient derived lines (PDX and Neurospheres); assay: 2D monolayer viability (Cell Titer-Glo); format: cell-based; details: Homo sapiens; range over the 6 lines; read-out: LC50 (the source's name)
# Experimental: GBM neurospheres and low passage PDX models were plated in 96-well plates at 10,000 cells per well in 50 μL of neural stem cell media. The next day, the cells were treated with OGM2 compounds at the indicated concentrations, in triplicates, by adding an equal volume of medium containing 2× the final concentration of compound. Following 72 hours incubation under standard cell culture conditions, relative cell number was assessed using Cell Titer-Glo Luminescent Cell Viability Assay (Promega™) following the manufacturer's instructions. Luminescence was determined using a Cytation 5 reader and Gen5 software package (BioTek™). For U87 and U138 cell lines, one thousand cells were plated per well in a standard 96-well plate and allowed to attach for 24 hours before exposure to concentrations of vehicle, OGM2, or TMZ. Cells were treated for 72 hours and then stained with DAPI. A 10× magnification lens on a LionheartFX (BioTek™) was used to image the wells, and images were stitched together with Gen5 software (BioTek™). Automated nuclei counting was also done using the Gen5 software. Results reported as percent response relative to DMSO control. IC50 (the concentration causing 50% inhibition) was determined by GraphPad Prism™ version 6.07.
# See FIG. 56, FIG. 55E, and FIG. 55F. […] Similarly.
# endothelial cell (EC) = assay: Acidification-induced endothelial cell dysfunction; format: cell-based
# Experimental: FIG. 34A through FIG. 34C: GPR68 plays a central role in acidification-induced endothelial cell (EC) dysfunction in vitro, and OGM2 abrogates EC dysfunction. […] These effects were abolished by OGM2 (OGM) at 3 uM and augmented by GPR68 positive allosteric modulator Ogerin (Og) at 2 uM. *P<0.05; Mann-Whitney test, n=5. FIG. 34C: Medium acidification reduced transendothelial resistance (TER), indicative of disruption of EC barrier function.
# ULK2 = target: T1, ULK2 (Homo sapiens, UniProt Q8IYT8); assay: KinomeScan; format: binding; details: read-out: % Control
# T1 construct: purchased DiscoveRx
# CDK3 = target: T2, CDK3 (Homo sapiens, UniProt Q00526); assay: KinomeScan; format: binding; details: read-out: % Control
# T2 construct: purchased DiscoveRx (KinomeScan service)
# MINK = target: T3, MINK (Homo sapiens, UniProt Q8N4C8); assay: KinomeScan; format: binding; details: read-out: % Control
# T3 construct: purchased DiscoveRx
# MAP3K1 = target: T4, MAP3K1 (Homo sapiens, UniProt Q13233); assay: KinomeScan; format: binding; details: read-out: % Control
# T4 construct: purchased DiscoveRx
# TIE1 = target: T5, TIE1 (Homo sapiens, UniProt P35590); assay: KinomeScan; format: binding; details: read-out: % Control
# T5 construct: purchased DiscoveRx (Fremont, CA)
# GLP-1 = target: T6, GLP-1 (Homo sapiens, UniProt P43220); assay: GPCR Profiler; format: cell-based
# T6 construct: host or cells: Chem-1 cells expressing Gα15
# ERK1 = target: T7, ERK1 (Homo sapiens, UniProt P27361); assay: KinomeScan; format: binding; details: read-out: % Control
# T7 construct: purchased DiscoveRx (Fremont, CA)
# PIK3CD = target: T8, PIK3CD (Homo sapiens, UniProt O00329); assay: KinomeScan; format: binding; details: read-out: % Control
# T8 construct: purchased DiscoveRx (Fremont, CA)
# ASK2 = target: T9, ASK2 (Homo sapiens, UniProt O95382); assay: KinomeScan; format: binding; details: read-out: % Control
# T9 construct: purchased DiscoveRx (Fremont, CA)
# CXCR4 = target: T10, CXCR4 (Homo sapiens, UniProt P61073); assay: GPCR Profiler; format: cell-based
# T10 construct: host or cells: Chem-1 cells with Gα15
# Thrombin Activated PARs = assay: GPCR Profiler; format: cell-based
# CHEK1 = CHEK1 (Homo sapiens, UniProt O14757); assay: KinomeScan; format: binding; details: read-out: % Control
# ASK1 = target: T11, ASK1 (Homo sapiens, UniProt Q99683); assay: KinomeScan; format: binding; details: read-out: % Control
# T11 construct: purchased DiscoveRx (Fremont, CA)
# SGK3 = target: T12, SGK3 (Homo sapiens, UniProt Q96BR1); assay: KinomeScan; format: binding; details: read-out: % Control
# T12 construct: purchased DiscoveRx (Fremont, CA)
# EGFR = target: T13, EGFR (Homo sapiens, UniProt P00533); assay: KinomeScan; format: binding; details: read-out: % Control
# T13 construct: purchased DiscoveRx (Fremont, CA), KinomeScan service
# BRSK2 = target: T14, BRSK2 (Homo sapiens, UniProt Q8IWQ3); assay: KinomeScan; format: binding; details: read-out: % Control
# T14 construct: purchased DiscoveRx (KinomeScan service)
# PHKG1 = target: T15, PHKG1 (Homo sapiens, UniProt Q16816); assay: KinomeScan; format: binding; details: read-out: % Control
# T15 construct: purchased DiscoveRx (Fremont, CA)
# CAMK1 = target: T16, CAMK1 (Homo sapiens, UniProt Q14012); assay: KinomeScan; format: binding; details: read-out: % Control
# T16 construct: purchased DiscoveRx (KinomeScan service)
# T16 sequence (Q14012 whole entry): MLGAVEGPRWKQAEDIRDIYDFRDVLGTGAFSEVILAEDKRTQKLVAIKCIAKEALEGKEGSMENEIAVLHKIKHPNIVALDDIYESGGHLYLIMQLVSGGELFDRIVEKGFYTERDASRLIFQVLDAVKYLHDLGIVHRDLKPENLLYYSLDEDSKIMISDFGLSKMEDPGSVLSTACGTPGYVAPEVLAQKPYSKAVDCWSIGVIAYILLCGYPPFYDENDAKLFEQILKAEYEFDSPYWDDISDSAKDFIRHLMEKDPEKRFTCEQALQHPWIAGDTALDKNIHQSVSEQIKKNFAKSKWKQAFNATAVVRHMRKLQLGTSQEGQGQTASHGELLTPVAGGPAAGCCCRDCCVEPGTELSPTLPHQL
# T10 sequence (P61073 whole entry, species assumed): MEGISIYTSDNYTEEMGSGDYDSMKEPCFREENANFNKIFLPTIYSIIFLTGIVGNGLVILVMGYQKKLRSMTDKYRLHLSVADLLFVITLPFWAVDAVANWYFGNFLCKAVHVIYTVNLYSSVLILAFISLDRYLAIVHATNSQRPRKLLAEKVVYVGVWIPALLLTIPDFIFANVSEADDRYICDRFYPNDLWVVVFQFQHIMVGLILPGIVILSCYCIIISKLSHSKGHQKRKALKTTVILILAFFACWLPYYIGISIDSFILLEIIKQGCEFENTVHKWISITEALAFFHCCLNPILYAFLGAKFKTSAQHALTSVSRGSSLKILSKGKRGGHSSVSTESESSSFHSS
# T6 sequence (P43220 24-463): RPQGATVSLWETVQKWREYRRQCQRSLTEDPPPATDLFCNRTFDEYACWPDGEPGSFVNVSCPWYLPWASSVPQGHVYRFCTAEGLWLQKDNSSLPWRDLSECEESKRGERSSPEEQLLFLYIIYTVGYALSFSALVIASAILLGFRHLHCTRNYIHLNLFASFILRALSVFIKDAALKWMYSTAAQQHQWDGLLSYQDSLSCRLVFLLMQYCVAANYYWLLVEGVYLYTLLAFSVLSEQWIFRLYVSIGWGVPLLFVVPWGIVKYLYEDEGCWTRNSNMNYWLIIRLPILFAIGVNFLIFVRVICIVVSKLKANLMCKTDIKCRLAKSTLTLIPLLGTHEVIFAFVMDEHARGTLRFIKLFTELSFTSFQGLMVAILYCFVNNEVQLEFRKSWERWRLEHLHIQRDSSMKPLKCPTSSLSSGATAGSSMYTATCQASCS
# T2 sequence (Q00526 whole entry): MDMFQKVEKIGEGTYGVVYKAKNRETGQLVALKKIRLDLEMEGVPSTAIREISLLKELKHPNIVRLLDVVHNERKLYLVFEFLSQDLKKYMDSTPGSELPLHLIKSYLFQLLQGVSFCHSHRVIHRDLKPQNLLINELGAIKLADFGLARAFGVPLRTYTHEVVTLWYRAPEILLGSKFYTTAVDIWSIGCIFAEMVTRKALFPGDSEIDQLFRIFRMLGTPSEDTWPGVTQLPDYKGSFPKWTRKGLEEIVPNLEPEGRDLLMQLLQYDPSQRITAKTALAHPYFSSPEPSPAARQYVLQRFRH
# T7 sequence (P27361 whole entry): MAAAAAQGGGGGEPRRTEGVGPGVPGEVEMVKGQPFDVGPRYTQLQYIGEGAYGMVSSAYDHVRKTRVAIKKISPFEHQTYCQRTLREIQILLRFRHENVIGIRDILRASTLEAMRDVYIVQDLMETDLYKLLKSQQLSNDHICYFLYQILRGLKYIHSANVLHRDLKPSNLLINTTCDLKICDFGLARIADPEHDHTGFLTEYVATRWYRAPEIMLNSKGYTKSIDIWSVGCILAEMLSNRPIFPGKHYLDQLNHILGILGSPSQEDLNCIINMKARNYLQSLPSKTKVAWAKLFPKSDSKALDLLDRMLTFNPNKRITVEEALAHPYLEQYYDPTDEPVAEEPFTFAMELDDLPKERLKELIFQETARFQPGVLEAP
# T8 sequence (O00329 whole entry): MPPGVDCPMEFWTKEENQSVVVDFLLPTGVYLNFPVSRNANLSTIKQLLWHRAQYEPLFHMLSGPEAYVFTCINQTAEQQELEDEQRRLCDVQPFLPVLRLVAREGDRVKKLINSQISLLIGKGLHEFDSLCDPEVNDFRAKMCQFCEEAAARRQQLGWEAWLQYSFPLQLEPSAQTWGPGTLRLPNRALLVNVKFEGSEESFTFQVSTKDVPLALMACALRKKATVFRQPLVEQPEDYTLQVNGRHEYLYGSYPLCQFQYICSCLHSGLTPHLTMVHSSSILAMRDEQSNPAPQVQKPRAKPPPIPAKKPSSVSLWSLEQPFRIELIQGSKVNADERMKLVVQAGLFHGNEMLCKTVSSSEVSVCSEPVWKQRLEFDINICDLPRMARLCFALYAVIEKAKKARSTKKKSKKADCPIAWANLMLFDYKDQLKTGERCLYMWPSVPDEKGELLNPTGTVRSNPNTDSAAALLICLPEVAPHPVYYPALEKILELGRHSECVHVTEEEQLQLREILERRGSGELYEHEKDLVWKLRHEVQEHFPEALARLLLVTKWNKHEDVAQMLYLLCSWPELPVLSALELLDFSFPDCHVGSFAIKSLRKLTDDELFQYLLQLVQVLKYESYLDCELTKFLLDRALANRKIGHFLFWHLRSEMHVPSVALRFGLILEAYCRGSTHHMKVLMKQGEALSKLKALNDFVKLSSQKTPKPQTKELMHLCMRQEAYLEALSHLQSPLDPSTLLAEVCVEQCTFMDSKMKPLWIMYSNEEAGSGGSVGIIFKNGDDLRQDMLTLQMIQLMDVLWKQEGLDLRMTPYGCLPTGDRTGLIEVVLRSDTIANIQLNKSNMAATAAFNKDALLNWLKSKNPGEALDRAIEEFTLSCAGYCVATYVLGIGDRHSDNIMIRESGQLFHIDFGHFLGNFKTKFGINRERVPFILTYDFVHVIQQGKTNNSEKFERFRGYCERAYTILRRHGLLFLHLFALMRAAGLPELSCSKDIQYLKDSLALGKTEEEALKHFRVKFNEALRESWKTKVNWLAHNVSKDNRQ
# T4 sequence (Q13233 whole entry): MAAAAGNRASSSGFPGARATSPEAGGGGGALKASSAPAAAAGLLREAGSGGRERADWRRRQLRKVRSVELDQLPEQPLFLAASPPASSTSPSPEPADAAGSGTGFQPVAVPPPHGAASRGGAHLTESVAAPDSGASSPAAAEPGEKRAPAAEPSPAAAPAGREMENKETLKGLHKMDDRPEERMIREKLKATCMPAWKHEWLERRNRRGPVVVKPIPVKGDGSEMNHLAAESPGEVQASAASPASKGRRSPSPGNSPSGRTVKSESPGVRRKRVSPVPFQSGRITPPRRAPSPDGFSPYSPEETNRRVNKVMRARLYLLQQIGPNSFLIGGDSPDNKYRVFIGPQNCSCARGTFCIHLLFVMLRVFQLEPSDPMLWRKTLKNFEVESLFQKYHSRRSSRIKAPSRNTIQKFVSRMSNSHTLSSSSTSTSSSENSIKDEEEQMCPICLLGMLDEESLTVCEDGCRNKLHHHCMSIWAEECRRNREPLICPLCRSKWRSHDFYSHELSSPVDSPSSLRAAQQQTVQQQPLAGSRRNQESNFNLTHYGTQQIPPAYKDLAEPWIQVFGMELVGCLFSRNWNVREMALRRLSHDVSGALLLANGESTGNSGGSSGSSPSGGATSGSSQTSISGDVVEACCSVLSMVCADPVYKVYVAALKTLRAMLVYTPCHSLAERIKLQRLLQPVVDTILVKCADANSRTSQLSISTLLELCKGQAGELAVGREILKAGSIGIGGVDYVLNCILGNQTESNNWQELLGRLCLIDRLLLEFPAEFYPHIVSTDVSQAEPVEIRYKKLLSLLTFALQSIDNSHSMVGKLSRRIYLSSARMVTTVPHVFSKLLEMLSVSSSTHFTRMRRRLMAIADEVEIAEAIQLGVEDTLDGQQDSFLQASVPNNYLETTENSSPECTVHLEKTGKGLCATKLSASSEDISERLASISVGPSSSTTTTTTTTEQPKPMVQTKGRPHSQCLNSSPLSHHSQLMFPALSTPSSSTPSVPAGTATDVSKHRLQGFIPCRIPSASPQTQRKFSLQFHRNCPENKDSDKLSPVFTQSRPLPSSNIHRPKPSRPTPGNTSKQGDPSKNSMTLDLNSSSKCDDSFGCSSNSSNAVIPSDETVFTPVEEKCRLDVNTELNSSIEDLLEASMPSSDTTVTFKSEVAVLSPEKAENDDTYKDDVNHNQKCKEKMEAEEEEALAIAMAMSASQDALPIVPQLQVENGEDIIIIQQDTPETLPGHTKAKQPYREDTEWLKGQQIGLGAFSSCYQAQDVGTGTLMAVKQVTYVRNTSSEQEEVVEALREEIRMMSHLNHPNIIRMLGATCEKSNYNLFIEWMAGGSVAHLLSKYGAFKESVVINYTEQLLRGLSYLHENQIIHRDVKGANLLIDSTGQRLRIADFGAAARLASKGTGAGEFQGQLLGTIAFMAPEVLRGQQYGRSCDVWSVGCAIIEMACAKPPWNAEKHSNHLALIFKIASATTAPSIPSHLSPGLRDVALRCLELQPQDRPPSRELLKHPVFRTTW
# T12 sequence (Q96BR1 whole entry): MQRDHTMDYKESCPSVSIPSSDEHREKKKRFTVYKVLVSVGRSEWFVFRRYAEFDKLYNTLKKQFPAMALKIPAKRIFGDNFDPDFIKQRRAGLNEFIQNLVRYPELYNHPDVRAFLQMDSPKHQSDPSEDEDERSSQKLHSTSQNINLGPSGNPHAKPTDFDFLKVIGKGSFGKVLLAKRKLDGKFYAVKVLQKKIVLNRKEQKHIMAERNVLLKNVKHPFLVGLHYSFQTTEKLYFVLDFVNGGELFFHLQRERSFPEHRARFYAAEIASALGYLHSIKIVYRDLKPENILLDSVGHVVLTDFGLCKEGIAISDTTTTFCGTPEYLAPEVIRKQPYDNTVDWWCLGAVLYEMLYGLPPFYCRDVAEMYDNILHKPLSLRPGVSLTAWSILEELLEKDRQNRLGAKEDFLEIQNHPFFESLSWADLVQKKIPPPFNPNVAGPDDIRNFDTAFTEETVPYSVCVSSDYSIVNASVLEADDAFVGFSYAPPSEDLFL
compound,measurement,setting,value
CCc1ccc2c(c1)C1(NN=C(c3ccccc3)S1)C(=O)N2 (stereo not drawn) [OGM2],CC50,[1],0.42 to 2.7 µM
same,TER decline caused by low pH (6.5),endothelial cell (EC); GPR4i 5 uM,abolished TER decline
same,"acidic media (pH 6.5)-induced TNFα, VCAM1 and ICAM1 expression","endothelial cell (EC); OGM2 3 uM, Ogerin 2 uM",abolished
"CCc1ccc2c(c1)C1(NN=C(c3cccc4ccccc34)S1)C(=O)N2 (stereo not drawn) [OGM1, 5-ethyl-5′-naphthalen-1-ylspiro[1H-indole-3,2′-3H-1,3,4-thiadiazole]-2-one]",remaining binding at 10 µM,ULK2,100%
same,remaining binding at 10 µM,CDK3,81%
same,remaining binding at 10 µM,MINK,97%
same,remaining binding at 10 µM,MAP3K1,72%
same,remaining binding at 10 µM,TIE1,94%
same,Antagonism,GLP-1; 10 uM,2.1
same,Agonism,GLP-1; 12.5 uM,−0.3
same,remaining binding at 10 µM,ERK1,100%
same,remaining binding at 10 µM,PIK3CD,55%
same,remaining binding at 10 µM,ASK2,100%
same,Antagonism,CXCR4; 10 uM,−6.9
same,Agonism,CXCR4; 12.5 uM,1.5
same,Antagonism,Thrombin Activated PARs; 10 uM,3.2
same,Agonism,Thrombin Activated PARs; 12.5 uM,1
same,remaining binding at 10 µM,CHEK1,100%
same,remaining binding at 10 µM,ASK1,100%
same,remaining binding at 10 µM,SGK3,56%
same,remaining binding at 10 µM,EGFR,100%
same,remaining binding at 10 µM,BRSK2,100%
same,remaining binding at 10 µM,PHKG1,91%
same,remaining binding at 10 µM,CAMK1,50%
